Experimental data: ChEMBL document CHEMBL4433200, “Another look at phenolic compounds in cancer therapy the effect of polyphenols on ubiquitin-proteasome system” (Eur J Med Chem, 2019)
pIC50: −log10 of the molar value. ≈ marks a conversion by molar mass, not a printed value. One block for each compound: values may come before it.

Legend:
[1] = molecular target: T1, Proteasome Macropain subunit MB1 (Homo sapiens, UniProt P28074); experiment: Inhibition of chymotrypsin-like activity of purified human 20S proteasome expressed in human Jurkat cells assessed as decrease in AMC hydrolysis using Suc-Leu-Leu-Val-Tyr-AMC as substrate incubated for 2 hrs by fluorescence based method
T1 sequence (P28074 whole entry): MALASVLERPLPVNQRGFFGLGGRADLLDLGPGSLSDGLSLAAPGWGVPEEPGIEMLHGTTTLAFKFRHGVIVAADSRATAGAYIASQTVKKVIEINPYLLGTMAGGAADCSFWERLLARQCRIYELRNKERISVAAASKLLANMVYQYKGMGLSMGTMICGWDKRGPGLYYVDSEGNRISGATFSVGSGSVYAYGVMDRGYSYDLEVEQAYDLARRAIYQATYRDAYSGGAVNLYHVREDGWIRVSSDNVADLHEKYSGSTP

[2] = molecular target: T1, Proteasome Macropain subunit MB1; experiment: Inhibition of chymotrypsin-like activity of human 26S proteasome in human Jurkat cells assessed as decrease in AMC hydrolysis using Z-Gly-Gly-Leu-AMC as substrate after 24 hrs by fluorescence based method; format: cell-based
[3] = molecular target: T1, Proteasome Macropain subunit MB1; experiment: Inhibition of chymotrypsin-like activity of purified human 20S proteasome assessed as decrease in AMC hydrolysis using Suc-Leu-Leu-Val-Tyr-AMC as substrate incubated for 30 mins by fluorometric analysis
[4] = molecular target: T2, Proteasome subunit beta type-5 (Rattus norvegicus, UniProt P28075); experiment: Inhibition of chymotrypsin-like activity of rat liver 26 proteasome assessed as decrease in fluorescence using succinyl-Leu-Leu-Val-Tyr-4-methylcoumaryl-7-amide as substrate preincubated for 30 mins followed by addition of substrate and measured after 1 hr by fluorescence based method
T2 sequence (P28075 whole entry): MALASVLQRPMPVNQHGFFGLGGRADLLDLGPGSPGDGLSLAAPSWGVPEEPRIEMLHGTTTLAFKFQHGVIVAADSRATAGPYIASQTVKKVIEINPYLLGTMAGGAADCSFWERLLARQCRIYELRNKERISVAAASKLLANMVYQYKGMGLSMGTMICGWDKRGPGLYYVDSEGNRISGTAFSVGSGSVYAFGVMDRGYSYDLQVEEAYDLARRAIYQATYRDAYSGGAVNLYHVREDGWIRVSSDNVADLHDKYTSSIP

[5] = molecular target: T1, Proteasome Macropain subunit MB1; experiment: Inhibition of chymotrypsin-like activity of purified human erythrocyte 20S proteasome assessed as decrease in AMC hydrolysis using Suc-LLVY-AMC as substrate preincubated for 10 mins and measured by fluorescence based method
[6] = Inhibition of chymotrypsin-like activity of purified rabbit 20S proteasome assessed as decrease in AMC hydrolysis using Suc-Leu-Leu-Val-Tyr-AMC as substrate incubated for 30 mins by fluorescence based method; design: species or system Oryctolagus cuniculus
[7] = molecular target: T1, Proteasome Macropain subunit MB1; experiment: Inhibition of chymotrypsin-like activity of human 26S proteasome extracted from human LNCap cells assessed as decrease in AMC hydrolysis using Suc-Leu-Leu-Val-Tyr-AMC as substrate incubated for 60 mins by fluorescence based method; format: cell-free
[8] = molecular target: T1, Proteasome Macropain subunit MB1; experiment: Inhibition of chymotrypsin-like activity of human 26S proteasome extracted from human Jurkat cells assessed as decrease in AMC hydrolysis using […] as substrate after 90 mins by fluorometric analysis; format: cell-free
[9] = molecular target: T1, Proteasome Macropain subunit MB1; experiment: Inhibition of chymotrypsin-like activity of human 26S proteasome in human Jurkat cells assessed as decrease in AMC hydrolysis using […] as substrate preincubated for 12 hrs followed by addition of substrate and measured after 2 hrs by fluorometric analysis; format: cell-based
[10] = Inhibition of chymotrypsin-like activity of rabbit 20S proteasome assessed as AMC hydrolysis using Suc-LLVY-AMC as substrate incubated for 2hrs by fluorescence based method; design: species or system Oryctolagus cuniculus

SMILES: O=C1C[C@@H](c2ccc(O)c(O)c2)Oc2cc(O)cc(O)c21 [ERIODICTYOL]
- pIC50 [1]: 4.79
- pIC50 [2]: 4.84

SMILES: O=C(O[C@@H]1Cc2c(O)cc(O)cc2O[C@H]1c1cc(O)c(O)c(O)c1)c1cc(O)c(O)c(O)c1 [GALLOCATECHIN GALLATE]
- pIC50 [3]: 6.73

- IC50 [4]: 0.018 µg/mL (≈ 0.0713 µM)
SMILES: C=CC(/C=C\c1ccc(O)cc1)c1ccc(O)cc1 (configuration not stated)

SMILES: O=c1cc(-c2ccccc2)oc2cc(O)cc(O)c12 [CHRYSIN]
- pIC50 [1]: 5.31
- pIC50 [2]: 5.21

- IC50 [4]: 0.06 µg/mL (≈ 0.234 µM)
SMILES: Oc1ccc(CC2COc3cc(O)ccc3C2)cc1 (configuration not stated)

- pIC50 [3]: 6.91
SMILES: O=C(O[C@@H]1Cc2c(O)cc(O)cc2O[C@H]1c1ccc(O)c(O)c1)c1cc(O)c(O)c(O)c1 [(-)-CATECHINGALLATE]

- pIC50 [5]: 5.31
SMILES: O=C(/C=C/c1ccc(O)cc1)c1ccc(O)cc1O [ISOLIQUIRITIGENIN]

SMILES: O=C(O)c1cc(O)c(O)c(O)c1 [GALLIC ACID]
- pIC50 [3]: 2.15

SMILES: O=c1c(O)c(-c2cc(O)c(O)c(O)c2)oc2cc(O)cc(O)c12 [MYRICETIN]
- pIC50 [1]: 5.00
- pIC50 [2]: 4.92

- IC50 [4]: 0.046 µg/mL (≈ 0.178 µM)
SMILES: COc1cc(O)ccc1CCCc1ccc(O)cc1 [BROUSSONIN B]

- pIC50 [3]: 6.71
SMILES: O=C(O[C@@H]1Cc2c(O)cc(O)cc2O[C@@H]1c1ccc(O)c(O)c1)c1cc(O)c(O)c(O)c1 [EPICATECHIN GALLATE]

- pIC50 [6]: 4.59
- pIC50 [5]: 5.03
- pIC50 [7]: 4.15 to 4.19
SMILES: O=c1c(-c2ccc(O)cc2)coc2cc(O)cc(O)c12 [GENISTEIN]

- pIC50 [5]: < 4.00
SMILES: COc1ccc2c(c1)O[C@H]1c3ccc(O)cc3OC[C@@H]21

SMILES: O=C(O[C@@H]1Cc2c(O)cc(O)cc2O[C@@H]1c1cc(O)c(O)c(O)c1)c1cc(O)c(O)c(O)c1 [EPIGALOCATECHIN GALLATE]
- pIC50 [3]: 6.71 to 7.07
- pIC50 [8]: 5.00 to 6.00
- pIC50 [9]: 4.74

SMILES: O=c1cc(-c2ccc(O)cc2)oc2cc(O)cc(O)c12 [APIGENIN]
- pIC50 [1]: 5.64 to 5.74
- pIC50 [2]: 5.72 to 6.00

- pIC50 [5]: < 4.00
SMILES: O=c1c(-c2ccc(O)cc2)coc2cc(O)ccc12 [DAIDZEIN]

SMILES: Oc1cc(O)c2c(c1)O[C@H](c1cc(O)c(O)c(O)c1)[C@H](O)C2 [EPIGALLOCATECHIN]
- pIC50 [3]: 2.92

- pIC50 [1]: 4.98
- pIC50 [2]: 4.96
SMILES: O=c1c(O)c(-c2ccc(O)cc2)oc2cc(O)cc(O)c12 [KAEMPFEROL]

- IC50 [4]: > 0.25 µg/mL
SMILES: COc1cc(O)c(C(=O)c2ccc(O)cc2)c(O)c1

- pIC50 [10]: 5.73
SMILES: COc1cc(/C=C/C(=O)CC(=O)/C=C/c2ccc(O)c(OC)c2)ccc1O [CURCUMIN]

SMILES: O=c1c(O)c(-c2ccc(O)c(O)c2)oc2cc(O)cc(O)c12 [QUERCETIN]
- pIC50 [1]: 5.46
- pIC50 [2]: 5.70

- pIC50 [5]: < 4.00
SMILES: COc1ccc(-c2coc3cc(O)ccc3c2=O)cc1 [FORMONONETIN]

- pIC50 [5]: < 4.00
SMILES: O=C1C[C@@H](c2ccc(O)cc2)Oc2cc(O)ccc21 [LIQUIRTIGENIN]

SMILES: O=c1cc(-c2ccc(O)c(O)c2)oc2cc(O)cc(O)c12 [LUTEOLIN]
- pIC50 [1]: 5.82
- pIC50 [2]: 5.89

SMILES: O=C1C[C@@H](c2ccc(O)cc2)Oc2cc(O)cc(O)c21 [NARINGENIN]
- pIC50 [1]: 4.31
- pIC50 [2]: 4.38
